For the first data set, the species on record is Homo sapiens. The data set can be described thus: Selectivity ratio of Kd for full length recombinant truncated non-catalytic N-terminal transmembrane helix containing C-terminal 4xHis tagged human CYP2A13dH expressed in Escherichia coli to Kd for full length recombinant truncated non-catalytic N-terminal transmembrane helix containing C-terminal 4xHis tagged human CYP2A6dH expressed in Escherichia coli.
In the case of `CC1CN(Cc2cccc(Cl)c2Cl)CC(C)O1` (stereo unspecified), the Selectivity ratio turned out to be 12.9.

In another data set the target is T1, Cytochrome P450 2A6 (Homo sapiens, UniProt P11509).
T1 sequence (P11509 whole entry): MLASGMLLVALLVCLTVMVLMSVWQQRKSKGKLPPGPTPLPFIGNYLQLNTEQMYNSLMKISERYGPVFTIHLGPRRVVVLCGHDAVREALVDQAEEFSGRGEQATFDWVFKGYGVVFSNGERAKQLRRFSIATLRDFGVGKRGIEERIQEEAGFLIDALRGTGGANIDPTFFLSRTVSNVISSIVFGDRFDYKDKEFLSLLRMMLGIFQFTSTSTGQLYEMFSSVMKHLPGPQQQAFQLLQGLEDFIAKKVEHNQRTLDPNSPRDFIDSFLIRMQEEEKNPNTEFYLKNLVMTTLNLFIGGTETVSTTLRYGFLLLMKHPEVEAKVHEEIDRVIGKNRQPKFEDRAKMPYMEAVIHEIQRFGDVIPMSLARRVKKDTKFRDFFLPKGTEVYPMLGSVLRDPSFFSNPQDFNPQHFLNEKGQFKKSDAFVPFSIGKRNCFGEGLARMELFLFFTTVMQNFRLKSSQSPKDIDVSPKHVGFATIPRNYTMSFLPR
The data set can be described thus: Binding affinity to full length recombinant truncated non-catalytic N-terminal transmembrane helix containing C-terminal 4xHis tagged human CYP2A6dH expressed in Escherichia coli by HTS assay. It counts as ADME.
Consider `Brc1ccccc1CN1CCOCC1`, for which the Kd result is listed as “Not Active”.

Turning to `Cc1ccccc1CN1CCOCC1`, the Kd entry was “Not Active”.

For `Fc1ccccc1CN1CCOCC1`, the Kd entry was “Not Active”.

Take `Clc1ccccc1CN1CCOCC1`: the Kd entry is given as “Not Active”.

With `Fc1cccc(Cl)c1CN1CCOCC1`, the Kd entry was “Not Active”.
